For 28 compounds, TGI and GI50 results are on record in PubChem BioAssay (NCI).

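How tested: cells in 96-well plates exposed to compound for 48 hours at five concentrations. At the GI50, growth is halved. At the TGI there is no net growth.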

Test systems include 786-0 renal; DLD-1 colon; DMS 114 small cell lung; DMS 273 small cell lung; KM20L2 colon; LXFL 529 NSCLC; M19-MEL melanoma; SNB-78 CNS; XF 498 CNS; SNB-19 CNS; HOP-18 NSCLC; BT-549 breast; HS 578T breast; MDA-N.
Assay in all cases: inhibition of tumour cell growth, NCI panel, 48 h

For the compound `O=C1CCCCC1CN1CCCC1` (stereo unspecified), the TGI with 786-0 renal, in the assay with DLD-1 colon, in the assay on DMS 114 small cell lung, in the assay on DMS 273 small cell lung, with KM20L2 colon and in the assay with LXFL 529 NSCLC was more than 100 µM throughout. In addition, the TGI with M19-MEL melanoma, with SNB-78 CNS and in the assay on XF 498 CNS was more than 100 µM each time.
For `CNC(=O)CN(CC(=O)NC)C(=O)NC`, the TGI with 786-0 renal, in the assay with DLD-1 colon, in the assay on DMS 273 small cell lung, with KM20L2 colon, with LXFL 529 NSCLC and with M19-MEL melanoma was more than 100 µM throughout. For the same compound, the TGI with SNB-19 CNS, with SNB-78 CNS and with XF 498 CNS was more than 100 µM throughout.
For `COc1ccc(N2C(=O)C3c4[nH]c5ccccc5c4C4CCCCCCCCCCC4C3C2=O)cc1` (stereo unspecified), the TGI in the assay with 786-0 renal was 8.17 µM; with DLD-1 colon it was more than 39.9 µM; in the assay on DMS 114 small cell lung, more than 47.5 µM; with DMS 273 small cell lung, 18.6 µM; in the assay on HOP-18 NSCLC it was 6.53 µM; in the assay with KM20L2 colon, 11.5 µM. Also, the TGI in the assay with LXFL 529 NSCLC is 23.7 µM; in the assay with M19-MEL melanoma, more than 52.2 µM; with SNB-19 CNS it was 40.8 µM; in the assay with XF 498 CNS it was 28 µM.
`COC(=O)CCCN(C)c1n[nH]c(N)n1`: the TGI in the assay on 786-0 renal, in the assay with DLD-1 colon, in the assay on DMS 114 small cell lung, in the assay on DMS 273 small cell lung, with KM20L2 colon and in the assay with LXFL 529 NSCLC was more than 100 µM each time. In addition, the TGI with M19-MEL melanoma, with SNB-19 CNS and in the assay on SNB-78 CNS was more than 100 µM throughout.
Consider `CCOC(=O)/C(=C\c1ccc(O)c(OC)c1)C(=O)c1ccccc1`, for which the TGI is 37.6 µM with 786-0 renal; 38.2 µM in the assay with DLD-1 colon; more than 100 µM in the assay on HOP-18 NSCLC; more than 56.7 µM in the assay on KM20L2 colon; more than 39.5 µM with LXFL 529 NSCLC; 79.6 µM in the assay on M19-MEL melanoma. The TGI in the assay with SNB-19 CNS was more than 45.8 µM; with SNB-78 CNS it was 8.36 µM; in the assay with XF 498 CNS it was more than 52 µM.
Turning to `CC(=O)c1cccc(NC(=O)/C(=N\NC(C)(C)C)c2c(O)c3ccccc3oc2=O)c1`, the TGI with 786-0 renal, in the assay with DLD-1 colon, in the assay on DMS 114 small cell lung, with DMS 273 small cell lung, with HOP-18 NSCLC and with KM20L2 colon was more than 100 µM in each case. The TGI in the assay with LXFL 529 NSCLC, in the assay on M19-MEL melanoma, with SNB-19 CNS and in the assay with XF 498 CNS was more than 100 µM in each case.
Consider `COc1cccc2c1CCc1ccccc1CC2=O`, for which the TGI with 786-0 renal, in the assay on DLD-1 colon, in the assay on DMS 114 small cell lung, with DMS 273 small cell lung, with HOP-18 NSCLC and in the assay on KM20L2 colon was more than 100 µM in each case. Also, the TGI in the assay with LXFL 529 NSCLC, in the assay with M19-MEL melanoma, with SNB-19 CNS and with XF 498 CNS was more than 100 µM in each case.
In the case of `COc1cccc(-c2cc(=O)c3cc(OC)c(OC)cc3[nH]2)c1`, the TGI in the assay with 786-0 renal, in the assay on DLD-1 colon, in the assay on DMS 114 small cell lung, in the assay on DMS 273 small cell lung, in the assay with KM20L2 colon and with LXFL 529 NSCLC was more than 100 µM each time. The TGI in the assay with M19-MEL melanoma, in the assay on SNB-19 CNS and in the assay on SNB-78 CNS was more than 100 µM each time. The GI50 with DMS 114 small cell lung was 54.4 µM.
For the compound `COC(OC)C1OC(CO)C(n2cc(C)c(=O)[nH]c2=O)C1O` (stereo unspecified), the TGI in the assay with 786-0 renal, with BT-549 breast, in the assay on HS 578T breast, in the assay with MDA-N and with SNB-19 CNS was more than 100 µM throughout.
`C=CC(Cl)(CBr)CCC(Br)=C(C)C` (stereo unspecified): the TGI is 67.6 µM with 786-0 renal; 44.4 µM with BT-549 breast; 76.2 µM in the assay on HS 578T breast; 40.8 µM in the assay with MDA-N; more than 100 µM with SNB-19 CNS.
Consider `COc1ccc(C[C@@H]2Cc3cc(OC)c(OC)cc3CN2C)cc1`, for which the TGI in the assay on 786-0 renal, in the assay with DLD-1 colon, in the assay with KM20L2 colon, in the assay with LXFL 529 NSCLC, in the assay with SNB-19 CNS and with SNB-78 CNS was more than 100 µM in each case. The TGI in the assay with XF 498 CNS was more than 100 µM.
As for `O=C1/C(=C\c2ccc(Cl)cc2Cl)Sc2scc(-c3cccc([N+](=O)[O-])c3)[n+]21`, the TGI with 786-0 renal is 12.3 µM; in the assay with BT-549 breast, 18.1 µM; with HS 578T breast it was more than 100 µM; in the assay on MDA-N it was 16.7 µM; in the assay with SNB-19 CNS, 32.5 µM.
Regarding `COC1=C2CC(C)CC(OC)[C@@H](OC(=O)CCN)[C@H](C)/C=C(\C)C(OC(N)=O)C(OC)/C=C\C=C(/C)C(=O)NC(=CC1=O)C2=O` (stereo partly specified), the TGI in the assay with 786-0 renal is 14.2 µM; in the assay with BT-549 breast, 16.9 µM; in the assay with HS 578T breast it was 16.9 µM; in the assay on MDA-N it was 12.7 µM; in the assay with SNB-19 CNS, 20.4 µM.
Consider `C=CCCCC1CCCNC1=O` (stereo unspecified), for which the TGI in the assay on 786-0 renal, in the assay on BT-549 breast, in the assay with HS 578T breast, with MDA-N and with SNB-19 CNS was more than 100 µM throughout.
As to `CCCCON1C[C@@H](O)C(O)[C@@H](O)C1` (stereo partly specified), the TGI in the assay with 786-0 renal, in the assay with BT-549 breast, in the assay on HS 578T breast, with MDA-N and in the assay with SNB-19 CNS was more than 100 µM throughout.
`OC12c3ccccc3C1(N1CCOCC1)CCCCC21OCCCO1` (stereo unspecified): the TGI in the assay on 786-0 renal, with DLD-1 colon, with DMS 114 small cell lung, with DMS 273 small cell lung, in the assay with HOP-18 NSCLC and in the assay with KM20L2 colon was more than 100 µM throughout. The TGI with LXFL 529 NSCLC, in the assay with SNB-19 CNS and in the assay on SNB-78 CNS was more than 100 µM throughout.
With `CCOc1ccc(N=NC2C(=O)N(C(=O)CC(=O)Nc3ccccc3OC)N=C2C)cc1` (stereo unspecified), the TGI in the assay with 786-0 renal is more than 57.3 µM; in the assay on BT-549 breast, more than 48.4 µM; in the assay on HS 578T breast it was more than 100 µM; in the assay with MDA-N, 6.14 µM; in the assay with SNB-19 CNS it was more than 34.8 µM.
For `CC1Cc2c(Br)nc(N)nc2NC1=O` (stereo unspecified) the same measures were more than 100 µM, more than 100 µM, more than 100 µM, more than 100 µM and more than 100 µM.
`Cc1nc(C)c(C(=O)NNC(=O)Cc2ccccc2)cc1C(=O)NNC(=O)Cc1ccccc1`: the TGI with 786-0 renal, with BT-549 breast, in the assay on HS 578T breast, in the assay with MDA-N and in the assay on SNB-19 CNS was more than 100 µM in each case.
Regarding `COc1ccccc1C1SCC(=O)N1c1ccc(-n2c(-c3ccccc3)nc3ccccc3c2=O)cc1` (stereo unspecified), the TGI with 786-0 renal, in the assay on BT-549 breast, with HS 578T breast, in the assay with MDA-N and in the assay on SNB-19 CNS was more than 100 µM each time.
`Cc1nc2c(n1CCO)C(=O)c1ccccc1C2=O`: the TGI in the assay on 786-0 renal was more than 100 µM; with DLD-1 colon, more than 100 µM; in the assay on DMS 273 small cell lung it was 70.2 µM; in the assay on KM20L2 colon it was more than 100 µM; with LXFL 529 NSCLC it was more than 100 µM; in the assay on M19-MEL melanoma, 6.6 µM. The figures for the TGI with SNB-19 CNS, in the assay with SNB-78 CNS and in the assay on XF 498 CNS were more than 100 µM, more than 100 µM and 92.9 µM, respectively.
For `CC(=N/NC(=S)N1CCCCC1)/C(=N\NC(=S)N1CCCCC1)c1ccccc1`, the TGI in the assay on 786-0 renal was found to be 3.69 µM; in the assay with BT-549 breast, 3.56 µM; in the assay with HS 578T breast, 4.82 µM; with MDA-N, 7.64 µM; in the assay on SNB-19 CNS, 3.64 µM.
For `CCOC(=O)c1c(N)nn2c1cc1cccccc12` the same measures were more than 100 µM, 65.2 µM, 82.8 µM, more than 100 µM and more than 100 µM.
Turning to `CCCN(CCCCC(NC(C)=O)C(=O)NCc1ccccc1)C(=O)N(C)N=O` (stereo unspecified), the TGI in the assay with 786-0 renal, in the assay on DLD-1 colon, with DMS 114 small cell lung, in the assay on DMS 273 small cell lung, with KM20L2 colon and with LXFL 529 NSCLC was more than 100 µM each time. The TGI in the assay with M19-MEL melanoma, in the assay with SNB-19 CNS, with SNB-78 CNS and in the assay with XF 498 CNS was more than 100 µM throughout.
Regarding `CC1=NN(C(=O)CC(=O)Nc2ccccc2C)C(=O)C1N=Nc1ccc(C(=O)O)cc1` (stereo unspecified), the TGI in the assay with 786-0 renal, in the assay with BT-549 breast, in the assay on HS 578T breast, with MDA-N and with SNB-19 CNS was more than 100 µM in each case.
`O=c1[nH]nc(Cc2ccccc2)n1/N=C/c1c(O)ccc2ccccc12`: the TGI with 786-0 renal is 30.3 µM; in the assay with BT-549 breast, more than 100 µM; in the assay on HS 578T breast, 81.1 µM; with MDA-N, more than 100 µM; with SNB-19 CNS, 46.5 µM.
In the case of `C=C1C(=O)O[C@@H]2[C@H]1C[C@@H](O)[C@H](C)[C@@](O)(C(=O)/C=C/C)[C@H]2OC(=O)C(C)CC` (stereo partly specified), the TGI was 6.91 µM in the assay on 786-0 renal; 13.3 µM with BT-549 breast; 6.34 µM in the assay with HS 578T breast; 10.3 µM in the assay with MDA-N; more than 68.8 µM with SNB-19 CNS.
Consider `COc1cc(N=CN(C)C)c2ncccc2c1`, for which the TGI is more than 100 µM in the assay with 786-0 renal; more than 100 µM in the assay on BT-549 breast; more than 100 µM in the assay with HS 578T breast; 56 µM in the assay on MDA-N; more than 100 µM with SNB-19 CNS.
